Test results: US20240389592A1, “FUNGICIDAL COMPOSITIONS” (SYNGENTA CROP PROTECTION AG, priority 2021, published 2024)

Tests used:
[1] = tested on: Septoria tritici (leaf blotch); assay: Septoria tritici liquid culture growth inhibition (microtiter plate, PDB); format: cell-based; conditions: single active ingredient, 72 hrs
Description: (§1) A synergistic effect exists whenever the action of an active ingredient combination is greater than the sum of the actions of the individual components. The action to be expected E for a given active ingredient combination obeys the so-called COLBY formula and can be calculated as follows (COLBY, S. R. “Calculating synergistic and antagonistic responses of herbicide combination”. Weeds, Vol. 15, pages 20-22; 1967): • ppm=milligrams of active ingredient (=a.i.) per liter of spray mixture • X=% action by active ingredient A) using p ppm of active ingredient • Y=% action by active ingredient B) using q ppm of active ingredient.
(§2) According to COLBY, the expected (additive) action of active ingredients A)+B) using p+q ppm of active ingredient is
(§3) If the action actually observed (O) is greater than the expected action (E), then the action of the combination is super-additive, i.e. there is a synergistic effect. In mathematical terms, synergism corresponds to a positive value for the difference of (O-E). In the case of purely complementary addition of activities (expected activity), said difference (O-E) is zero. A negative value of said difference (O-E) signals a loss of activity compared to the expected activity.
Septoria tritici (Leaf Blotch):
Conidia of the fungus from cryogenic storage were directly mixed into nutrient broth (PDB potato dextrose broth). A DMSO solution of the test compounds was placed into a microtiter plate (96-well format) and the nutrient broth containing the fungal spores was added to it. The test plates were incubated at 24 C and the inhibition of growth was determined photometrically after 72 hrs.

[2] = tested on: Glomerella lagenarium syn. Colletotrichum lagenarium (Anthracnose of cucurbits); assay: Glomerella lagenarium liquid culture growth inhibition (microtiter plate, PDB); format: cell-based; conditions: single active ingredient, 72 hrs
Description: A synergistic effect exists whenever the action of an active ingredient combination is greater than the sum of the actions of the individual components. The action to be expected E for a given active ingredient combination obeys the so-called COLBY formula and can be calculated as follows (COLBY, S. R. “Calculating synergistic and antagonistic responses of herbicide combination”. Weeds, Vol. 15, pages 20-22; 1967): • ppm=milligrams of active ingredient (=a.i.) per liter of spray mixture • X=% action by active ingredient A) using p ppm of active ingredient • Y=% action by active ingredient B) using q ppm of active ingredient. According to COLBY, the expected (additive) action of active ingredients A)+B) using p+q ppm of active ingredient is If the action actually observed (O) is greater than the expected action (E), then the action of the combination is super-additive, i.e. there is a synergistic effect. In mathematical terms, synergism corresponds to a positive value for the difference of (O-E). In the case of purely complementary addition of activities (expected activity), said difference (O-E) is zero. A negative value of said difference (O-E) signals a loss of activity compared to the expected activity. Glomerella Lagenarium Syn. Colletotrichum lagenarium (Anthracnose of Cucurbits): Conidia of the fungus from cryogenic storage were directly mixed into nutrient broth (PDB potato dextrose broth). A DMSO solution of the test compounds was placed into a microtiter plate (96-well format) and the nutrient broth containing the fungal spores was added to it. The test plates were incubated at 24 C and the inhibition of growth was determined photometrically after 72 hrs at 620 nm.

[3] = tested on: Phakopsora pachyrhizi (Asian soybean rust); assay: Phakopsora pachyrhizi soybean leaf disk test after whole plant spray; format: in vivo; conditions: single active ingredient, evaluation 11 to 14 days after inoculation
Description: as §1, §2, §3
Phakopsora pachyrhizi (Soybean Rust):
Whole soybean plants are treated with the recited active ingredients 4 weeks after planting. 1 day after spraying leaf disks are cut from the first trifoliate leaf. Five repetitions at each rate are conducted. The leaf disks are inoculated with Phakopsora pachyrhizi (Asian soybean rust) one day after treatment. Evaluation of the leaf disks is conducted 11 to 14 days after inoculation and the activity is derived from the relation of the treated vs untreated, infested check. The rates of the active ingredients used are given in Table as g active ingredient (a.i.)/ha.

## CCOC(=O)c1cnn(Cc2ccc(O/C=C(\OCC)C(F)(F)F)cc2)c1 [Compound A-1.2, ethyl 1-[[4-[[(1Z)-2-ethoxy-3,3,3-trifluoro-1-propen-1-yl]oxy]phenyl]methyl]-1H-pyrazole-4-carboxylate]
[1]; 10 g ai/ha
  Observed Activity (%): 0%
[1]; 20 g ai/ha, 24 C
  Observed Activity (%): 0%
[2]; 10 g ai/ha
  Observed Activity (%): 0%
[2]; 20 g ai/ha, 24 C, 620 nm
  Observed Activity (%): 0%
[3]; Phakopsora pachyrhizi, foliar, 0.1 g ai/ha, read-out: Observed Activity (%)
  inhibition at 0.1 g/ha: 16%

## O=C(Nc1ccccc1F)c1ccc(-c2noc(C(F)(F)F)n2)cc1 [Flufenoxadiazam, flufenoxadiazam]
[2]; 0.74 g ai/ha
  Observed Activity (%): 20%
[2]; 2.22 g ai/ha
  Observed Activity (%): 20%
[2]; 6.66 g ai/ha
  Observed Activity (%): 50%
[2]; 20 g ai/ha, 24 C, 620 nm
  Observed Activity (%): 90%
[3]; 0.1 g ai/ha
  Observed Activity (%): 3%
[3]; 0.3 g ai/ha
  Observed Activity (%): 5%
[3]; 0.9 g ai/ha
  Observed Activity (%): 31%

## CCC(=O)Oc1c(OC)ccnc1C(=O)N[C@@H](C)C(=O)O[C@@H](C)[C@@H](C)c1ccccc1C [Metarylpicoxamid, metarylpicoxamid]
[3]; 0.1 g ai/ha
  Observed Activity (%): 0%
[3]; 0.3 g ai/ha
  Observed Activity (%): 51%

## inpyrfluxam
[1]; 0.0246 g ai/ha
  Observed Activity (%): 20%
[1]; 0.074 g ai/ha
  Observed Activity (%): 70%
[1]; 0.22 g ai/ha
  Observed Activity (%): 90%
[3]; 0.1 g ai/ha
  Observed Activity (%): 13%
[3]; 0.3 g ai/ha
  Observed Activity (%): 25%
[3]; 0.9 g ai/ha
  Observed Activity (%): 68%
